Source: patent US4599362A, “2-aryl-ethyl ether derivatives and insecticidal and acaricidal agents containing said derivatives” (priority 1980, dated 1986)
In brackets after ≈: the same amount, converted by molar mass. Like-named read-outs stand apart in the source and are kept apart here.

Key:
German cockroach = test: Test 7: Effect on German Cockroach; type: in vivo; settings: Blattella germanica, male adults, 24 hours, agonized and killed; for mortality at 10 mg/m2: 10 mg/m^2; for mortality at 50 mg/m2: 50 mg/m^2
Procedure: The bottom face of a high Petri dish having a diameter of 9 cm and a height of 9 cm was treated with 50 or 10 mg/m^2 of a test compound and the dish was air-dried. In order to prevent the adults from escaping from the dish, the inner wall of the dish was treated with butter. Then, 10 male adults of German cockroach were set free in each dish, and the dish was placed in a thermostat chamber maintained at 25° C. After 24 hours, the number of agonized and killed adults was counted. The test was made on two dishes and the average value was calculated.

Test 8: Fish Toxicity = type: in vivo; settings: carp, water, carps, concentration at which 1/2 of the test fishes were killed, read-out: Fish Toxicity, TLm48
Procedure: A water tank having a width of 60 cm, a length of 30 cm and a height of 40 cm was filled with water, and 10 yearling carps having a body length of about 5 cm were set free in the tank and adapted to the environment in the tank. A test compound was applied so that the concentration in water was 10, 1, or 0.1 ppm. After 48 hours, the numbers of killed and living carps were counted and the influences on the fishes were examined.

[1] = test system: third-instar larvae of diamond back moth; test: Test 4: Effect on Diamond Back Moth; type: in vivo; settings: Plutella xylostella, 24 hours
Procedure: (§1) To a mixture of 20 parts of the compound of the present invention and 20 parts of Sorpol SM-200 (registered trademark for the product supplied by Toho Chemical Industrial Co., Ltd.) was added 60 parts of xylol, and the mixture was sufficiently blended. The obtained emulsifiable concentrate was diluted at a predetermined concentration with distilled water, and the obtained dilution was used.
Cabbage leaves were spread in a plastic cup, and 10 third-instar larvae of diamond back moth were set free in the cup.
A chemical dilution having a concentration of 100 or 20 ppm, prepared in the same manner as described in Test 1, was applied from an applicator at a rate of 3 ml per cup.
After scattering of the chemical dilution, the cup was covered, and after 24 hours, the numbers of killed and living larvae were counted and the mortality was calculated. The test was made on three cups and the average value was calculated.

[2] = Test 9: Toxicity Test (acute oral, mice); settings: mouse, in vivo, po
Procedure: In the fish toxicity test, the test compound was dissolved in acetone to form a 1% solution, and a predetermined amount of the solution was used. In the mouse toxicity test, the test compound of the present invention was dissolved or suspended in corn oil, and a predetermined amount of the solution or suspension was used.
A predetermined amount of a solution or suspension of a test compound in corn oil was orally administered to male mice having a body weight of 19 to 23 g (0.2 ml per 10 g of the body weight). After 7 days, the number of killed mice was counted and the influences on the mice were examined.

two-spotted spider mite = test: Test 6: Effect on Two-Spotted Spider mite adults; type: in vivo; settings: Tetranychus urticae; 500 ppm; adults; 24 hours; read-out: Mortality (%)
Procedure: as §1
A kidney bean leaf disc perforated with a cork borer (15 mm in diameter) was placed on water-impreganated absorbent cotton (2 cm×2 cm), and 10 adults of two-spotted spider mite were set free. A chemical dilution having a concentration of 500 ppm was applied with an applicator in an amount of 3 ml.
The leaf disc-placed absorbent cotton was placed in a thermostat chamber maintained at 25° C. After 24 hours, the number of killed adults was counted and the mortality was calculated. The test was made on three leaf discs and the average value was calculated.

[3] = test system: resistant green rice leafhopper (collected at Nakagawara); test: Test 3: Effect on Resistant Green Rice Leafhopper; type: in vivo, Nephotettix cincticeps Uhler; settings: Nephotettix cincticeps, 24 h, read-out: Mortality (%) Green Rice Leafhopper Collected at Nakagawara
Procedure: as §1
(§2) Seedlings (having 2 to 3 leaves) of paddy rice were hydroponically cultured in a pot having a diameter of 5 cm. A chemical dilution having a concentration of 100 or 20 ppm, prepared in the same manner as described in Test 1, was applied with a sprayer at a rate of 3 ml per pot. The treated seedlings were air-dried and covered with a metal net cylinder, and female adults of resistant green rice leafhopper (collected at Nakagawara) and sensitive green rice leafhopper (collected at Chigasaki) were set, respectively, free in the pot at a density of 10 adults per pot. After of 24 hours, the numbers of killed and living adults were counted and the mortality was calculated. The test was made on three pots and the average value was calculated.

[4] = test system: sensitive green rice leafhopper (collected at Chigasaki); test: Test 3: Effect on Sensitive Green Rice Leafhopper; type: in vivo; settings: Nephotettix cincticeps, female adults, 24 hours
Procedure: as §1, §2

green peach aphids = test: Test 5: Effect on green peach Aphid; type: in vivo; settings: Myzus persicae, 24 hours, mortality class, read-out: Insecticidal Activity
Procedure: as §1
Seedlings (having 3 to 4 leaves) of an eggplant grown on a pot were inoculated with green peach aphids and the insects were allowed to grow. The number of the insects was counted. A chemical dilution having a concentration of 100 ppm, prepared in the same manner as described in Test 1, was applied with a spray gun at a rate of 10 ml per pot. Then, the pot was placed in a glass green house. After 24 hours, the number of living insects was counted and the mortality was calculated.
The test was made on three pots, and the average value was calculated. In Table 6, mark "A" indicates a mortality higher than 95%, mark "B" indicates a mortality of 80 to 95%, mark "C" indicates a mortality of 50 to 80%, and mark "D" indicates a mortality lower than 50%.

[5] = test system: Second-instar and fifth-instar larvae of tobacco cutworm; test: Test 2: Tobacco Cutworm Larva Dipping Test; type: in vivo
Procedure: as §1
A dilution having a chemical concentration of 100 or 20 ppm was prepared in the same manner as described in Test 1.
Second-instar and fifth-instar larvae of tobacco cutworm were dipped in the dilution for 5 seconds, and the excessive dilution was removed by a filter paper. Then, the larvae were set free in a plastic cup and an artificial diet was supplied thereto. The cup was allowed to stand still in a thermostat chamber maintained at 25° C. After 24 hours, the numbers of the killed and living larvae were counted and the mortality was calculated. The test was made on three cups and the result was expressed by an average value.

[6] = topical, 24 h, read-out: Mortality (%) Fifth-Instar Larvae

Compound | mortality at 10 mg/m2 (German cockroach) | mortality at 50 mg/m2 (German cockroach) | LC50 at 48 h (Test 8: Fish Toxicity) | mortality at 20 ppm [1] | mortality at 100 ppm [1] | LD50 at 168 h [2] | mortality at 500 ppm (two-spotted spider mite) | mortality at 20 ppm [3] | mortality at 100 ppm [3] | mortality at 20 ppm [4] | mortality at 100 ppm [4] | mortality at 100 ppm (green peach aphids) | mortality at 20 ppm ([5]; 20 ppm, second-instar larvae, 24 hours, read-out: Mortality (%) Second-Instar Larvae) | mortality at 100 ppm ([5]; 100 ppm, second-instar larvae, 24 hours, read-out: Mortality (%) Second-Instar Larvae) | mortality at 20 ppm [5, 6] | mortality at 100 ppm [5, 6]
Cc1cccc(C(C)(C)COCc2ccc(F)c(Oc3ccccc3)c2)c1 [Compound 19, 3-phenoxy-4-fluorobenzyl 2-(3-methylphenyl)-2-methylpropylether] | 90% | 100% | > 1 µg/mL | 100% | 100% | – | – | – | – | – | – | – | – | – | – | –
CC(C)(COCc1ccc(F)c(Oc2cccc(Cl)c2)c1)c1ccc(Cl)cc1 [Compound 9, 3-(3-Chlorophenoxy)-4-fluorobenzyl 2-(4-chlorophenyl)-2-methylpropyl ether] | – | – | > 1 µg/mL | – | – | > 500 mg/kg | – | – | – | – | – | – | – | – | – | –
CC(C)(COCc1ccc(F)c(Oc2ccccc2)c1)c1ccc(Cl)c(Cl)c1 [Compound 14, 3-Phenoxy-4-fluorobenzyl 2-(3,4-dichlorophenyl)-2-methylpropyl ether] | – | – | > 1 µg/mL | 100% | 100% | – | 100% | – | – | – | – | – | – | – | – | –
Cc1ccc(C(C)(C)COCc2ccc(F)c(Oc3ccccc3)c2)cc1 [Compound 28, 3-phenoxy-4-fluorobenzyl 2-(4-methylphenyl)-2-methylpropyl ether] | 100% | 100% | > 1 µg/mL | 100% | 100% | – | – | 100% | 100% | 100% | 100% | > 95% | – | – | – | –
CCOc1ccc(C(C)(C)CSCc2ccc(F)c(Oc3ccccc3)c2)cc1Cl [Compound 51] | 100% | 100% | – | 80% | 100% | > 500 mg/kg | 90% | – | – | – | – | > 95% | – | – | – | –
Cc1ccc(C(C)(C)COCc2cc(Oc3ccccc3)ccc2Cl)cc1 [Compound 31, 3-Phenoxy-6-chlorobenzyl 2-(4-methylphenyl)-2-methylpropyl ether] | – | – | > 10 µg/mL | – | – | > 500 mg/kg | – | – | – | – | – | – | – | – | – | –
CC(C)(COCc1cc(Oc2ccccc2)ccc1Br)c1ccc(Cl)cc1 [Compound 26, 3-Phenoxy-6-bromobenzyl 2-(4-chlorophenyl)-2-methylpropyl ether] | – | – | > 10 µg/mL | – | – | > 500 mg/kg | – | – | – | – | – | – | – | – | – | –
CC(C)(COCc1ccc(F)c(Oc2ccc(F)cc2)c1)c1ccc(Cl)c(Cl)c1 [Compound 24, 3-(4-Fluorophenoxy)-4-fluorobenzyl 2-(3,4-dichlorophenyl)-2-methylpropyl ether] | – | – | > 1 µg/mL | 90% | 100% | – | – | – | – | – | – | – | – | – | – | –
CCOc1ccc(C(C)(C)COCc2ccc(F)c(Oc3ccccc3)c2)cc1 [Compound 36, 3-Phenoxy-4-fluorobenzyl 2-(4-ethoxyphenyl)-2-methylpropyl ether] | 100% | 100% | – | 100% | 100% | > 500 mg/kg | – | 100% | 100% | 100% | 100% | > 95% | 100% | 100% | 100% | 100%
CCCCOc1ccc(C(C)(C)COCc2ccc(F)c(Oc3ccccc3)c2)cc1 [Compound 49] | 100% | 100% | ~0.5 µg/mL (≈ 1.18 µM) | – | – | – | – | 100% | 100% | 100% | 100% | > 95% | – | – | – | –
CCC(C)(COCc1ccc(F)c(Oc2ccccc2)c1)c1ccc(Cl)cc1 (stereo not shown) [Compound 20, 3-Phenoxy-4-fluorobenzyl 2-(4-chlorophenyl)-2-methylbutyl ether] | 100% | 100% | > 1 µg/mL | 100% | 100% | > 500 mg/kg | 100% | 100% | 100% | 100% | 100% | – | – | – | – | –
CC(C)Sc1ccc(C(C)(C)COCc2ccc(F)c(Oc3ccccc3)c2)cc1 [Compound 54, 3-Phenoxy-4-fluorobenzyl 2-(4-isopropylthiophenyl)-2-methylpropyl ether] | 100% | 100% | – | 100% | 100% | > 500 mg/kg | 100% | – | – | – | – | > 95% | – | – | – | –
COc1ccc(C(C)(C)COCc2ccc(F)c(Oc3ccccc3)c2)cc1 [Compound 16, 3-Phenoxy-4-fluorobenzyl 2-(4-methoxyphenyl)-2-methylpropyl ether] | 90% | 100% | > 0.5 µg/mL | 80% | 100% | – | – | – | – | – | – | – | – | – | – | –
CC(C)(COCc1cc(Oc2ccccc2)ccc1Cl)c1ccc(Cl)cc1 [Compound 7, 3-phenoxy-6-chlorobenzyl 2-(4-chlorophenyl)-2-methylpropyl ether] | – | – | > 10 µg/mL | – | – | > 500 mg/kg | – | – | – | – | – | – | – | – | – | –
COc1ccc(C(C)(C)COCc2ccc(F)c(Oc3ccc(F)cc3)c2)cc1 [Compound 5, 3-(4-Fluorophenoxy)-4-fluorobenzyl 2-(4-methoxyphenyl)-2-methylpropyl ether] | – | – | > 1 µg/mL | – | – | > 500 mg/kg | – | 100% | 100% | 100% | 100% | – | – | – | – | –
CC(C)(COCc1ccc(F)c(Oc2ccccc2)c1)c1ccc(OC2CCCCC2)cc1 [Compound 46, 3-Phenoxy-4-fluorobenzyl 2-(4-cyclohexyloxyphenyl)-2-methylpropyl ether] | – | – | > 1 µg/mL | – | – | – | 100% | 100% | 100% | 100% | 100% | – | – | – | – | –
